Data from ChEMBL document CHEMBL1201862, “PubChem BioAssay data set” (2004).
The source made the active and inactive calls.

How the values were obtained:
[1] = inhibitors of Vif binding to APOBEC3G peptide, primary screen, biochemical, TR-FRET, GST-Vif 1-94, biotin-A3G peptide, dose response retest (AID 1117319); type: functional;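 note: TR-FRET signal of purified GST-Vif binding a biotinylated A3G peptide; inhibitors lower the FRET signal by blocking Vif and A3G binding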
[2] = human group III sPLA2 inhibitors, dose response, biochemical, QFRET, IC50 (AID 743457);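 note: green fluorescence rise as the enzyme cleaves BODIPY PC-A2 in liposomes; potency for inhibition of the enzyme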
Streptococcus = experiment: Group A Streptococcus viability loss, dose response, counter-screen for streptokinase expression inhibitor project, luminescence, BacTiterGlo (AID 1915); type: functional, organism-based;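 note: potency for reduction of bacterial viability or growth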
[3] = tested on: Streptococcus sp. 'group A'; experiment: growth inhibition of control SK(-) GAS strain, dose response, counter-screen for streptokinase expression inhibitor project, luminescence, kanamycin, BacTiterGlo, confirmation (AID 1900); type: functional, organism-based
HEK293 = experiment: inhibitors of LMP1-driven NF-kB reporter, dose response, cell-based, HEK293, luciferase, cherry-pick (AID 588343); type: functional; conditions: Homo sapiens
[4] = LGR2 antagonists, dose response, cell-based, HEK293, CRE-luciferase reporter, cherry pick, set 2 (AID 743343); type: functional;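 note: transfected cells were stimulated with diluted bursicon conditioned medium after compound addition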
[5] = A549 cell cytotoxicity, dose response, cytotoxicity control, plate reader, cherry-pick, antagonist series (AID 743412); type: functional, cell-based
[6] = MC4R antagonists, dose response, counter-screen for LGR2 antagonist project, cell-based, plate reader, cherry pick (AID 743444); type: functional;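 note: transfected HEK 293 cells stimulated with alpha-MSH peptide; potency of inhibitors of the alpha-MSH evoked signal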
[7] = target: T1, RNA-editing ligase 1, mitochondrial (Trypanosoma brucei brucei, UniProt P86926); experiment: TbREL1 ligase inhibitors, dose response, biochemical, fluorescence, Trypanosoma brucei (AID 1117295); type: functional
T1 sequence (P86926 whole entry): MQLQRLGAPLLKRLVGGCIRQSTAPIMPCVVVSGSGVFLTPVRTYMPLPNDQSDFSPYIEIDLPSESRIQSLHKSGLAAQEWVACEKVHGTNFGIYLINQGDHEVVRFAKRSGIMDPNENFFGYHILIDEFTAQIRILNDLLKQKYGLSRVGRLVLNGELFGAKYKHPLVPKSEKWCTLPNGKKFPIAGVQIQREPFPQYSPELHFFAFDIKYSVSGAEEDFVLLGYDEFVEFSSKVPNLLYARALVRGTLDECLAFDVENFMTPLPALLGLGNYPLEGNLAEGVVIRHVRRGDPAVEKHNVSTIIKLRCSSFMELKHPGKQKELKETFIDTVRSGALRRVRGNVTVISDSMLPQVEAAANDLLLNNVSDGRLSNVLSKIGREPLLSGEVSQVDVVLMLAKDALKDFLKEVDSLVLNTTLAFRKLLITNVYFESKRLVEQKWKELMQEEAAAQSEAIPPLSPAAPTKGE

HT-1080 = experiment: cytotoxicity in HT1080 fibrosarcoma cells, cell-based, fluorescence readout (AID 620); type: functional; conditions: Homo sapiens
[8] = target: Luciferin 4-monooxygenase (Photinus pyralis, UniProt P08659); experiment: Counter Screen for Luciferase-based Assay Positives. [Related pubchem assays: 620, 618, 411 ]
Cytochrome P450 3A4 = Cytochrome P450 3A4 (Homo sapiens, UniProt P08684);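 note: CYP3A4 tested as one member of a cytochrome P450 panel screen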
Cytochrome P450 2D6 = Cytochrome P450 2D6 (Homo sapiens, UniProt P10635);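 note: CYP2D6 member of a cytochrome P450 panel assay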
Cytochrome P450 1A2 = target: T2, Cytochrome P450 1A2 (Homo sapiens, UniProt P05177);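 note: PubChem cytochrome P450 panel assay, CYP1A2 panel member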
T2 sequence (P05177 whole entry): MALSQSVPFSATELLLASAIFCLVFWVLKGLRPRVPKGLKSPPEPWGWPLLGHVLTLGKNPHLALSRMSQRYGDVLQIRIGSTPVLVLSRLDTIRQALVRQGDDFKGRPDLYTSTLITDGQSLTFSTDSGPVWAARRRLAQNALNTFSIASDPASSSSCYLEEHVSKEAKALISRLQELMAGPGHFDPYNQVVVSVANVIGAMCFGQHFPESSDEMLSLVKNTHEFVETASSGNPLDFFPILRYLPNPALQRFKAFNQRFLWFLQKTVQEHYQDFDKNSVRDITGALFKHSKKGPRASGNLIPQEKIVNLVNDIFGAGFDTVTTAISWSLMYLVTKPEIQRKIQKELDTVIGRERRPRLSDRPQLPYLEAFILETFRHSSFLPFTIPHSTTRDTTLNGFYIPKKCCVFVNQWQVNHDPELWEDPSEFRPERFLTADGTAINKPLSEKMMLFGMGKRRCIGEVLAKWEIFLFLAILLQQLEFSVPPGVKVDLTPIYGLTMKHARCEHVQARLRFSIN

[9] = target: T3, Heat shock factor protein 1 (Mus musculus, UniProt P38532); experiment: HSF1 potentiators in luciferase reporter cells, confirmation, cell-based, NIH3T3, luminescence, dose retest (AID 435004); type: functional;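 note: stress induced by proteasome inhibitor MG132 added 30 min after compound; luciferase reporter driven by HSF1 response element in NIH3T3 cells; actives raise luminescence as potentiators of the MG132 stress response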
T3 sequence (P38532 whole entry): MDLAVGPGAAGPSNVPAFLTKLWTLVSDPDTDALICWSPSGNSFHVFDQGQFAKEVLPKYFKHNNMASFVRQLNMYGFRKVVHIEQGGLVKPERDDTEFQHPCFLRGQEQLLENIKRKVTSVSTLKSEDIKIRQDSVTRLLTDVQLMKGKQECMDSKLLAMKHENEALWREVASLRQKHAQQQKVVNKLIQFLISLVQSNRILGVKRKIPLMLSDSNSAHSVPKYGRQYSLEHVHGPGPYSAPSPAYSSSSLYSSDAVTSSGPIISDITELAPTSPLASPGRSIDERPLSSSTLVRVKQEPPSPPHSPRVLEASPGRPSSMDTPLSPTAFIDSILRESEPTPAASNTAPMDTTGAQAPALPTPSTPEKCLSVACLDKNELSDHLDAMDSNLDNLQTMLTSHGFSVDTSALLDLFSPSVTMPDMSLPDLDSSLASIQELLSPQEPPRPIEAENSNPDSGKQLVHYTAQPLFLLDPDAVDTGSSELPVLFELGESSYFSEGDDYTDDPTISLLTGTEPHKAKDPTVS

[10] = target: T4, Corticotropin-releasing factor receptor 2/Corticotropin-releasing factor-binding protein (Homo sapiens, UniProt P24387+Q13324); experiment: activators of CRF receptor 2 with binding protein – uHTS hits, confirmation (AID 602473); type: functional; conditions: read-out: EC50_Mean
T4 sequence (Q13324 whole entry): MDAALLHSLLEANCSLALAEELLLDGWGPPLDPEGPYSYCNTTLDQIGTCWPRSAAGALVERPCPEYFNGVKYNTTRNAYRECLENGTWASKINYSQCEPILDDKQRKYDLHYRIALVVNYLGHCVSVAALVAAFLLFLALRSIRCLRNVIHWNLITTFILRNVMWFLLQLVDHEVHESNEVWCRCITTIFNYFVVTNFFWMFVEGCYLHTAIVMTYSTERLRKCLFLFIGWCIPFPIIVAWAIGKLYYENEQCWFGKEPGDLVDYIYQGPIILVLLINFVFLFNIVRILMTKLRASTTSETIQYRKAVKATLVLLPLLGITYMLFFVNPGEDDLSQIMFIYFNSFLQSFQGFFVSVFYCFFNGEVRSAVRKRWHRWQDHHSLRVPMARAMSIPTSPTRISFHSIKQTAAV
T4 sequence (P24387 whole entry): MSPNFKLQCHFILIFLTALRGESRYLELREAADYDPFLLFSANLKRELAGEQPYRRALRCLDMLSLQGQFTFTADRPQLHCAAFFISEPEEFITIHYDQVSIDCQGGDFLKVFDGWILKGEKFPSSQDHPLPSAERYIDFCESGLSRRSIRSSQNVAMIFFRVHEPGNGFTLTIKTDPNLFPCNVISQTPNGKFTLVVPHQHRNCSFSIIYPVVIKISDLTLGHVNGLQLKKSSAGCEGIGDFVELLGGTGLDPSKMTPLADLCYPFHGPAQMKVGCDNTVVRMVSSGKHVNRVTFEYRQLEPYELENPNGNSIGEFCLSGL

[11] = target: T4, Corticotropin-releasing factor receptor 2/Corticotropin-releasing factor-binding protein; experiment: Dose Response confirmation of uHTS hits for small molecule antagonists of the CRF-binding protein and CRF-R2 receptor complex.; type: functional; conditions: read-out: IC50_Mean
[12] = target: T5, DNA repair protein RAD52 homolog (Homo sapiens, UniProt P43351); type: functional, biochemical
T5 sequence (P43351 whole entry): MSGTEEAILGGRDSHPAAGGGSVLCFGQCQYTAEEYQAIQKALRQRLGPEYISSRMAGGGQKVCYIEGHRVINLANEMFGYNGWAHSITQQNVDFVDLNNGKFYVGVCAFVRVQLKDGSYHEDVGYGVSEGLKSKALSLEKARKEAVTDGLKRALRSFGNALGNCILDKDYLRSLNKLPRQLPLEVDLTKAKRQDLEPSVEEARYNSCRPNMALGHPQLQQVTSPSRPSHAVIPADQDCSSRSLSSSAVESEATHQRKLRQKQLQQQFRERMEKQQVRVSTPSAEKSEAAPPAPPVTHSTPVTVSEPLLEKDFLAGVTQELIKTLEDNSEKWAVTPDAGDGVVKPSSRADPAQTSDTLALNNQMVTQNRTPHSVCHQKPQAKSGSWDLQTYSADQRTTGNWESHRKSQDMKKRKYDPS

[13] = target: T6, Trace amine-associated receptor 1 (Homo sapiens, UniProt Q96RJ0); experiment: Fluorescence-based cell-based high throughput dose response assay to identify agonists of the human trace amine associated receptor 1 (TAAR1).; type: functional
T6 sequence (Q96RJ0 whole entry): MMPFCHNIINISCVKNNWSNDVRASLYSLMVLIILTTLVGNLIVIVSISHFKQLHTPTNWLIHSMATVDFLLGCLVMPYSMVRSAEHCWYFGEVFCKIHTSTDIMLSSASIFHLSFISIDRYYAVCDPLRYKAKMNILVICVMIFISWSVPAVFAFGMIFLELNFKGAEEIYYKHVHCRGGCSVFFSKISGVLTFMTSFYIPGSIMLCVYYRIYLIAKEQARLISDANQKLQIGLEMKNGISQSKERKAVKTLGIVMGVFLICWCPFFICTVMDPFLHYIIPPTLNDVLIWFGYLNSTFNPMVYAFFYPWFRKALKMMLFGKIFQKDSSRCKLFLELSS

cells [14] = type: functional, cell-based
cells [15] = type: functional, cell-based; remark: listed apart in the source
[16] = target: T6, Trace amine-associated receptor 1; experiment: Counterscreen for agonists of the human trace amine associated receptor 1 (hTAAR1): Fluorescence-based cell-based high throughput dose response assay to identify hTAAR1 agonist that also desensitize TAAR1 receptor response.; type: functional
[17] = IGROV1 ovarian cancer cell cytotoxicity, dose response, PAX8 inhibitor project, plate reader, dry powder samples (AID 743043); type: functional, cell-based; conditions: IGROV-1
Paired box protein Pax-8 = Paired box protein Pax-8 (Homo sapiens, UniProt Q06710); experiment: inhibitors of PAX8-driven TPO luciferase reporter, dose response, RMG-I cells, cherry-pick (AID 687027); type: functional, cell-based;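 note: luciferase reporter driven by Pax8 target thyroperoxidase promoter measured by SteadyGlo luminescence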
[18] = target: T7, Disintegrin and metalloproteinase domain-containing protein 17 (Homo sapiens, UniProt P78536); experiment: ADAM17 protease inhibitors, dose response, counter-screen for ADAM10 exosite inhibitor project, biochemical, quenched FRET substrate (AID 743253)
[19] = ADAM10 inhibitors, peptide cleavage, dose response, biochemical, QFRET (AID 743254);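 note: ADAM10 enzyme with the DM2 quenched FRET peptide as substrate; EDANS fluorescence gain as the protease cuts the substrate; inhibitor potency against ADAM10 proteolytic activity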
[20] = target: T7, Disintegrin and metalloproteinase domain-containing protein 17; experiment: exosite inhibitors of ADAM17, dose response, biochemical (AID 743260)

T7 sequence (P78536 whole entry, the tested form may be a part): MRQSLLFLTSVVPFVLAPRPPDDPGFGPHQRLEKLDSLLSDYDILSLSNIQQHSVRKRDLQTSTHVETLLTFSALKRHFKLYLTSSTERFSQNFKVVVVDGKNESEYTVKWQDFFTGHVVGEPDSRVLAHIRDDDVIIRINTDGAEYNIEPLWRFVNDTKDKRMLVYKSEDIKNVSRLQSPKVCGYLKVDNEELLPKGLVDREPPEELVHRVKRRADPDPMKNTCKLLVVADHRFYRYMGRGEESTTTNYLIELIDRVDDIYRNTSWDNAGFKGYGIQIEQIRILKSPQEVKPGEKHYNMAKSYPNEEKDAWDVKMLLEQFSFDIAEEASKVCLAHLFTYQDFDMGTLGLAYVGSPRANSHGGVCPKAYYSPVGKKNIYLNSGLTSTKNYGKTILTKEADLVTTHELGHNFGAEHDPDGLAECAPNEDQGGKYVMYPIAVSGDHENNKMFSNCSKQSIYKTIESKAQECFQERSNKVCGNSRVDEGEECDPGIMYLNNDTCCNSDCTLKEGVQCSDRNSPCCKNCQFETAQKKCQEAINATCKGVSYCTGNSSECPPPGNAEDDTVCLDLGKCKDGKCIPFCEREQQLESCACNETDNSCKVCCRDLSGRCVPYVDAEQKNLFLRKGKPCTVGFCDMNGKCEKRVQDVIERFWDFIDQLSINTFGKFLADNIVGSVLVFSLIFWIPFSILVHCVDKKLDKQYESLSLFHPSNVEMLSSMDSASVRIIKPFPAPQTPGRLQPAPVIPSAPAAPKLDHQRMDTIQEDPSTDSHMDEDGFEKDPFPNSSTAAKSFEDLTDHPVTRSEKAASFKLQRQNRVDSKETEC
Sequence of Cytochrome P450 3A4 (P08684 whole entry): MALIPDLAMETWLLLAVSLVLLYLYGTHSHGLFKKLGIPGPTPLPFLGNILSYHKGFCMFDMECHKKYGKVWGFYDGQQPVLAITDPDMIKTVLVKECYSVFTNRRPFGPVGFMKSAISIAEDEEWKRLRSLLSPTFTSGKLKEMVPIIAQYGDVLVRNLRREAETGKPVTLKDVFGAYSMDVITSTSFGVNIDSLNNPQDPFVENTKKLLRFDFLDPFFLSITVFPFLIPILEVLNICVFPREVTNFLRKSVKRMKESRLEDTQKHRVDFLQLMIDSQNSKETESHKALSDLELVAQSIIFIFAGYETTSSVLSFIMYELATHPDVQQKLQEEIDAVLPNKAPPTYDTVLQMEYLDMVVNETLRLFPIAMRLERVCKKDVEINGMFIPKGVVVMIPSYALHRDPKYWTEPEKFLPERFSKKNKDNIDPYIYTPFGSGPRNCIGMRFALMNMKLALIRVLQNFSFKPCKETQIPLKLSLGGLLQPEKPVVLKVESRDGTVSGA
Sequence of Luciferin 4-monooxygenase (P08659 whole entry): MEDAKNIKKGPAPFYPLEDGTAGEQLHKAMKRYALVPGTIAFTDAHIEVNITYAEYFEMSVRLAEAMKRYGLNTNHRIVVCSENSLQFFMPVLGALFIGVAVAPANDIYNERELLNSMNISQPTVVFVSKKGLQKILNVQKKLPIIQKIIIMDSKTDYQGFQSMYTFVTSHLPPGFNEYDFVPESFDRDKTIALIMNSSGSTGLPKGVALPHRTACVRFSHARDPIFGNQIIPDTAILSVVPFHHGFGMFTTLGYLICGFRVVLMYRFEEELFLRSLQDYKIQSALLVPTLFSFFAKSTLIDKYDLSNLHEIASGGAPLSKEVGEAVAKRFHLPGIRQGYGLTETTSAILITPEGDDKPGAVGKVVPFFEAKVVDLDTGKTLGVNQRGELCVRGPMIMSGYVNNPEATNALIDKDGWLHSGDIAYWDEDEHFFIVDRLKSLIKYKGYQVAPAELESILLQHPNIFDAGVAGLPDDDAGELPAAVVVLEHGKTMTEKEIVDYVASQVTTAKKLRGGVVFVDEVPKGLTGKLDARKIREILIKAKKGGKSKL
Sequence of Paired box protein Pax-8 (Q06710 whole entry, the tested form may be a part): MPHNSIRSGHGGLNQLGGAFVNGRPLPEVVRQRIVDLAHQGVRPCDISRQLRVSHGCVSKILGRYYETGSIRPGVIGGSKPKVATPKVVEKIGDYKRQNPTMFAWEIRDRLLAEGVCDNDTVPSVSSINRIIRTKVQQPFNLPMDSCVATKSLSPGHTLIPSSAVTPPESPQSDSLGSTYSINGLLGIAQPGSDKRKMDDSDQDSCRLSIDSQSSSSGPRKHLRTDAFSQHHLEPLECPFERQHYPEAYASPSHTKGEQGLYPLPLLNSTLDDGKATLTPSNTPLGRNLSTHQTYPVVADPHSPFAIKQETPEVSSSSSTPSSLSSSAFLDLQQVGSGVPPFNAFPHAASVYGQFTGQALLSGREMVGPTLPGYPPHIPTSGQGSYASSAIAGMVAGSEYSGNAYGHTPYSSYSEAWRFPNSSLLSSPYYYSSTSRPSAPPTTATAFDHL
Sequence of Cytochrome P450 2D6 (P10635 whole entry): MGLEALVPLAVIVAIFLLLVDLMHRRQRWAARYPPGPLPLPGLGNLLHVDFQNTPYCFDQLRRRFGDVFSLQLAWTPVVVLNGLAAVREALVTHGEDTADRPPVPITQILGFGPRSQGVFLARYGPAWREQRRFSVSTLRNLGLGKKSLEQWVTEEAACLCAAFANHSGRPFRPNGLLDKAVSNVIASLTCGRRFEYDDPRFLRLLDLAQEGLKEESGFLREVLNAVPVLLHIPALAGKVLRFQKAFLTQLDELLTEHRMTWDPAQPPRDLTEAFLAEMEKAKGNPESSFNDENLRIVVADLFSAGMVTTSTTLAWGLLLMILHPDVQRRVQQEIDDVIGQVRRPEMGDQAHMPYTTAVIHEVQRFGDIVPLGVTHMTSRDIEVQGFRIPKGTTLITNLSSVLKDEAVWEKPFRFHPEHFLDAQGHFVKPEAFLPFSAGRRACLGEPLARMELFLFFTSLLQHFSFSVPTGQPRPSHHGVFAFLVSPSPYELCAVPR

Compound: O=C(NCc1ccc(Cl)cc1)c1ccccc1Oc1ccccc1
- IC50 [1]: > 100 µM (active)

Compound: Cc1cc(C)c2nc(NNC(=O)c3ccc(S(=O)(=O)N4CCCCC4)cc3)sc2c1
- IC50 [2]: 19 µM (inactive)
- EC50 (Streptococcus): 4.91 µM (active)
- EC50 [3]: 1.92 µM (active)

Compound: CC(=O)c1ccc(NC(=O)c2noc3c2CCC3)cc1
- AC50 (HEK293): 1.92 µM (active)
- AC50 [4]: 2.77 µM (active)
- AC50 [5]: > 52 µM (inactive)
- AC50 [6]: 3.68 µM (active)

Compound: COc1cc(CN(CCN(C)C)Cc2ccccc2)ccc1OCc1ccccc1
- IC50 [7]: > 96.6 µM (inactive)

Compound: COCCn1c(C)cc(C(=O)CSc2nnc3ccccn23)c1C
- EC50 (HT-1080): > 50 µM (not active)
- AC50 (HEK293): 2.88 µM (active)
- AC50 [4]: 4.03 µM (active)
- AC50 [5]: > 52 µM (inactive)
- AC50 [6]: 3.66 µM (active)
- EC50 [8]: < 0.2 µM (active)

Compound: S=C(Nc1cccc(Cl)c1)NC1CCCCC1
- AC50 (Cytochrome P450 3A4): 15.8 µM (inconclusive)
- AC50 (Cytochrome P450 2D6): 44.7 µM (inconclusive)
- AC50 (Cytochrome P450 1A2): 17.8 µM (inconclusive)
- IC50 [1]: > 100 µM (active)

Compound: C=CCNC(=S)NNC(=O)c1cccn(Cc2ccc(Cl)c(Cl)c2)c1=O
- IC50 [2]: > 122 µM (inactive)
- EC50 [9]: > 260 µM (inactive)

Compound: CC(=O)c1cccc(Nc2cc(C)nc3c(C)cccc23)c1
- EC50 [10]: > 53 µM (inactive)
- IC50 [11]: > 47.1 µM (inactive)
- AC50 [12]: 21.4 µM (active)

Compound: O=C(Nc1nccs1)c1[nH]cnc1C(=O)N1CCc2ccccc2C1
- EC50 [13]: 0.858 µM (active)
- EC50 (cells [14]): > 29.9 µM (inactive)
- IC50 (cells [15]): > 29.9 µM (inactive)
- IC50 [16]: 4.95 µM (active)

Compound: Cc1cc(NC(=O)CSc2nnc(-c3ccoc3C)n2N)no1
- IC50 [1]: > 100 µM (active)

Compound: COc1cccc(CNc2nc(NCc3ccccc3)nc3ccsc23)c1
- IC50 [7]: > 96.6 µM (inactive)

Compound: O=C(N[C@@H](Cc1cccnc1)C(=O)N1CCC[C@H]1C(=O)NCCc1ccccc1Cl)c1cccs1
- EC50 [13]: 8.12 µM (active)
- EC50 (cells [14]): > 29.9 µM (inactive)
- IC50 (cells [15]): > 29.9 µM (inactive)
- IC50 [16]: 14.4 µM (inactive)

Compound: Cc1ccc(S(=O)(=O)Nc2ccc3c(c2)C(=O)N([C@H](C)CO)C[C@@H](C)[C@H](CN(C)S(=O)(=O)c2ccc(C)cc2)OCCCC[C@H](C)O3)cc1
- AC50 [17]: 51.4 µM (active)
- AC50 (Paired box protein Pax-8): 9.07 µM (active)

Compound: CCN(CC)c1ccc(C=NNC(=O)c2cc(-c3ccc(C)c(C)c3)[nH]n2)c(O)c1
- IC50 [2]: > 122 µM (inactive)

Compound: Cc1ccccc1NC(C)C(=O)N/N=C/c1ccccc1OCc1cccc(Br)c1 (centres undefined)
- IC50 [18]: > 69.5 µM (inactive)
- IC50 [19]: > 69.5 µM (inactive)
- IC50 [20]: > 69.5 µM (inactive)

Compound: Cc1ccsc1/C=N\Nc1cnnc(O)c1Cl
- EC50 [13]: 2.16 µM (active)
- EC50 (cells [14]): > 29.9 µM (inactive)
- IC50 (cells [15]): > 29.9 µM (inactive)
- IC50 [16]: 8.29 µM (active)
